Earlier results in US11497742B1, “Pharmaceutical composition for the treatment of Covid-19 infection” (priority 2021, dated 2022).

What was measured:
[1] = system: SARS-CoV-2 infection; conditions: interim analysis, 775 patients, oral
[2] = target: COVID-19 Mpro (Severe acute respiratory syndrome coronavirus 2, UniProt P0DTD1); conditions: Hussein and Elkhair 2021

Molecule | reduced the risk of hospitalization or death [1] | inhibition of COVID-19 Mpro (molecular docking, low binding energies) [2]
CC(C)C(=O)OC[C@H]1O[C@@H](n2ccc(NO)nc2=O)[C@H](O)[C@@H]1O [Molnupiravir] | approximately 50% | 
Zn(HCQ)Cl2H2O |  | potent inhibitors
Zn(CQ)Cl2H2O |  | potent inhibitors
